Laboratory results: patent US9943844B2, “Microfluidic evaluation system for evaluating the efficacy of an antiperspirant product and associated method” (L'OREAL, priority 2013, dated 2018)
Read-outs that look alike come from different tables or passages of the source.

How the values were obtained:
[1] = cited from earlier work
[2] = Microfluidic evaluation of antiperspirant efficacy: clog formation at the confluence of secondary (sweat) channel and main channel, seen by phase contrast microscopy
Excerpt: The invention also has for object a method for evaluating the efficacy of an antiperspirant product comprising the following steps: • supplying an evaluation system 1 such as described hereinabove; • injecting natural and/or artificial sweat into the or each secondary channel 9 of the microfluidic chip 5 from the sweat source 3; • injecting at least one antiperspirant product into the main channel 7; • determining at least one physical-chemical parameter that represents the efficacy of the antiperspirant agent considered; and • evaluating the efficacy of the antiperspirant product using the determined physical-chemical parameter.
The step of filling is followed by a step of distributing, during which the antiperspirant product flowing in the main channel 7 and the sweat flowing in the secondary channel or channels 9 react together, in particular on the zones of confluence between the sweat flowing in the secondary channel or channels 9 and the antiperspirant product flowing in the main channel 7. According to the efficacy of the antiperspirant product, during this step of distributing, the interaction between the sweat and the antiperspirant product leads to the formation of clogs at the outlet 25 of the secondary channel or channels 9.
These values can in particular be Boolean values. For example, the physical-chemical parameter measured is the formation or not of a clog, and it is concluded that the antiperspirant product tested is effective if the formation of a clog is observed during the method. If no formation of a clog is observed, non-efficacy is concluded for the antiperspirant product.
These tests were conducted with the microfluidic chip 4 described hereinabove, and by using as imaging tool 45 a phase contrast microscope.
The injection of the sweat and of the antiperspirant product was carried out according to the sequence described in the table 1.
It is considered that the antiperspirant product is not effective when no clog is formed in the secondary channel 9. In this case, the sweat of the secondary channel 9 can freely flow in the main channel 7.

Substance	antiperspirant efficacy in vivo ([1]; in vivo)	Evaluation result [2]	antiperspirant efficacy in vivo ([1]; known to be (not) effective antiperspirant agent in vivo)	Evaluation result ([2]; concentration 5%, injection sequence of table 1, effective = formation of a clog in secondary channel preventing sweat flow, not effective = no clog formed)	Evaluation result ([2]; concentration 15%, injection sequence of table 1, effective = formation of a clog in secondary channel preventing sweat flow, not effective = no clog formed)
Aluminum Zirconium Glycine [AZG]	effective	Effective	–	–	–
aluminum chlorohydrate [ACH]	–	–	effective	Effective	Effective
